Biological target: Ssu72 (dSsu72) (Drosophila melanogaster, UniProt Q9VWE4)
Settings: 25 mM Tris-HCl, 25 mM KCl, 2 mM dithiothreitol, 5% D2O, 30 °C; phosphate up to 25:1 molar ratio; active site loop

Chain of Ssu72 (dSsu72) (Q9VWE4 1-195): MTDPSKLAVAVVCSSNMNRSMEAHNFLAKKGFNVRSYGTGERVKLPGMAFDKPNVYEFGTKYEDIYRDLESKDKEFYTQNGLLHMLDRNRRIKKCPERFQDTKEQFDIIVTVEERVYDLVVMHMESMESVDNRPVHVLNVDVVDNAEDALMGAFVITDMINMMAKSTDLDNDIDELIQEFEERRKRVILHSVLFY

O=P(O)(O)O [inorganic phosphate]
NMR titration, 1H/15N-HSQC-TROSY chemical shift perturbation: large number of significant perturbations upon titration of wild-type Ssu72 with inorganic phosphate
